The test system of data set [1] is RAW264.7 cells. To be noted: MTS; for cell survival rate: mean ± SD. How it is done:
RAW264.7 cells were cultured in a 5% CO2 environment at 37 °C using a specific complete medium (DMEM (PM150210) + 10% FBS (164210-50) + 1%P/S (PB180120)) designed for RAW264.7 cells. Cells in the logarithmic growth phase were harvested and seeded into 96-well plates at a density of 1 × 10^5 cells/mL per well with 100 μL of inoculation volume. Subsequently, the plates were pre-cultured for 12 h at 37 °C in a 5% CO2 atmosphere, following which the medium was removed.
The pre-cultured RAW264.7 cells were then divided into control (C) and model (M) groups. Then, 100 μL of complete medium was added to group C, and 100 μL of complete medium containing concentrations of 250, 300, 350, 400, and 450 μmol/L H2O2 was added to group M. After continuing the incubation for 6 h, the medium was discarded. Cell viability was assessed using the MTS method. The optimal H2O2 concentration for inducing the oxidative stress model was determined when cell viability decreased to 50%, ensuring that the cells maintained a specific viability level while meeting the damage criteria.

For data set [2] the following is noted: cited from earlier work; for DPPH free-radical scavenging IC50: AOPs from skipjack tuna protein extract. The source says:
The virtual screening method, employing peptide affinity for Keap1 as a screening parameter, exclusively confirms the capability of CP1 to activate the Keap1/Nrf2 pathway. On the other hand, the chromatographic method, utilizing the free-radical scavenging rate as a screening metric, solely validates the ability of CP2 to scavenge free radicals. […] The chemical method for evaluating AOP antioxidant activity can be categorized into two main types: hydrogen atom transfer and electron transfer. In assays such as hydroxyl and DPPH radical scavenging, AOP transforms free radicals into anions via electron transfer. Moreover, in the lipid peroxidation inhibition assay, AOP hinders lipid peroxidation by releasing hydrogen atoms, thereby deactivating free radicals.
(The DPPH test is a chemical assay of radical scavenging.)

For data set [3] the following is noted: cited from earlier work. The source says: AOP antioxidant activity is primarily assessed through chemical and cell modeling methods. The chemical method for evaluating AOP antioxidant activity can be categorized into two main types: hydrogen atom transfer and electron transfer. In assays such as hydroxyl and DPPH radical scavenging, AOP transforms free radicals into anions via electron transfer. Moreover, in the lipid peroxidation inhibition assay, AOP hinders lipid peroxidation by releasing hydrogen atoms, thereby deactivating free radicals.

Data set [4] concerns RAW264.7 cells. In words: Survival of normal cells (MTS). Type of data set: cell-based. The following applies: 24 h. How it is done:
Pre-cultured RAW264.7 cells were allocated into groups C, CP1, and CP2. Group C received 100 μL of complete medium, while groups CP1 and CP2 were supplemented with 100 μL of complete medium containing CP1 and CP2, respectively, at final concentrations of 1.25, 2.5, 5, 10, 20, and 40 μg/mL. The cells were then incubated for 24 h before discarding the medium. Cell viability was assessed using the MTS method to identify non-toxic concentration ranges for subsequent experiments.

A short description of data set [5]: Antioxidant stability under simulated digestion. Type of data set: in vitro ADME. The following applies: simulated GI (gastrointestinal) digestion versus G digestion; not significant (p > 0.05). The source says:
We refer to Chai et al. and Gallego et al. methods to evaluate the antioxidant stability of AOPs at different temperatures, pH levels, and simulated digestion conditions.

Where two headings read alike, the source gives them in different places.

Turning to `OO` [Peptide H2O2, hydrogen peroxide], the cell activity result in data set [1] (RAW264.7, 200 μmol/L H2O2, 6 h) is reported as “exceeded 90%”. Further, the cell survival rate in data set [1] (RAW264.7, 250 μmol/L H2O2, 6 h) amounted to 83.51 ± 6.15%; in data set [1] (RAW264.7, 300 μmol/L H2O2, 6 h), 79.06 ± 3.21%; in data set [1] (RAW264.7, 350 μmol/L H2O2, 6 h) it was 64.73 ± 0.99%; in data set [1] (RAW264.7, 400 μmol/L H2O2, 6 h) it was 48.68 ± 5.48%; in data set [1] (RAW264.7, 450 μmol/L H2O2, 6 h) it was 26.10 ± 1.65%.
Take EVGK [duck blood AOP, literature]: the “DPPH radical scavenging rate” value in data set [2] (0.5 mg/mL, duck blood AOP) is given as 26.63%. For the same compound, the “transition metal chelation rate” value in data set [3] (0.5 mg/mL, duck blood AOP) is listed as 16.35%.
In the case of H-ANNGKQWAEVF-OH [CP1], the “cell viability of normal cells versus group C” value was “significantly lower than that of group C” in data set [4] (RAW264.7, 40.00 μg/mL) and “did not show a significant difference compared to group C” in data set [4] (RAW264.7, 1.25 to 20.00 μg/mL). The “reduction of free-radical scavenging rate” value in data set [5] is 38.64%.
Consider H-QPGLPGPAG-OH [CP2], for which the “cell viability of normal cells versus group C” value in data set [4] (RAW264.7, 40.00 μg/mL) is “significantly lower than that of group C”; in data set [4] (RAW264.7, 1.25 to 20.00 μg/mL), “did not show a significant difference compared to group C”. In addition, in data set [5], the “reduction of free-radical scavenging rate” value was 34.01%.
Regarding LCGEC [tuna AOP, literature], the “DPPH radical scavenging rate” value in data set [2] (1 mg/mL, tuna AOP) was 16.83%. For the same compound, the “DPPH radical scavenging rate, IC50” value in data set [2] (tuna AOP) was “exceeded 10 mg/mL”.
In the case of “QAEP [AOP from skipjack tuna protein extract, literature]”, the “DPPH free-radical scavenging IC50” value in data set [2] was 1.11 mg/mL.
With “QEAE [AOP from skipjack tuna protein extract, literature]”, the “DPPH free-radical scavenging IC50” value in data set [2] was 1.77 mg/mL.
YFLWP: in data set [2] (yellow croaker AOP), the “IC50 DPPH radical scavenging” value was 1.59 mg/mL. For the same compound, in data set [3] (yellow croaker AOP), the “IC50 hydroxyl radical scavenging” value is listed as 2.47 mg/mL.
Consider YGPEP [sheepskin AOP, literature], for which the “IC50 lipid peroxidation inhibition rate” value in data set [3] (sheepskin AOP) is 3.94 mg/mL.

(Values after publication PMC11352039, “Isolation and Characterization of Antioxidant Peptides from Dairy Cow (Bos taurus) Placenta and Their Antioxidant Activities” (Antioxidants, 2024).)
